From BindingDB's records for patent US20250346571 (Xizang Haisco Pharmaceutical, 2025)

Target: Poly [ADP-ribose] polymerase 1 (Homo sapiens, UniProt P09874)
Assay: PARP-1 Enzyme Activity Test Experiment
Procedure: PARP-1 chemical […] detection kit was purchased from BPS Bioscience. The histone solution in the kit was diluted 5× with 1×PBS, and 25 μL of the diluted histone solution was added to a microwell plate and incubated overnight at 4° C. After the incubation, the plate was washed three times with PBST (0.05% Tween-20). 100 μL of the blocking solution was added to the microwell plate and incubated at 25° C. for 90 minutes. After the incubation was completed, the plate was washed three times with PBST. 2.5 μL of compounds at different concentrations diluted in test buffer and 12.5 μL of substrate mixed solution (1.25 μL 10×PARP test buffer; 1.25 μL 10×PARP test mixed solution; 2.5 μL Activated DNA, 7.5 μL double-distilled water) were added to the microwell plate. The PARP-1 enzyme was diluted to 2 ng/μL, […] was added to the microwell plate, and the reaction system was incubated at 25° C. for 60 minutes. After the incubation was completed, the plate was washed three times with PBST. Streptavidin-HRP was diluted 50× with a blocking solution, and 25 μL of the diluent was added to the microwell plate and incubated at 25° C. for 30 minutes. […] ELISA ECL substrate A and substrate B were uniformly mixed at a ratio of 1:1 (v/v), 50 μL of the mixture was added to the microwell plate, and the chemiluminescence value was read.

Poly [ADP-ribose] polymerase 1, sequence (P09874 whole entry): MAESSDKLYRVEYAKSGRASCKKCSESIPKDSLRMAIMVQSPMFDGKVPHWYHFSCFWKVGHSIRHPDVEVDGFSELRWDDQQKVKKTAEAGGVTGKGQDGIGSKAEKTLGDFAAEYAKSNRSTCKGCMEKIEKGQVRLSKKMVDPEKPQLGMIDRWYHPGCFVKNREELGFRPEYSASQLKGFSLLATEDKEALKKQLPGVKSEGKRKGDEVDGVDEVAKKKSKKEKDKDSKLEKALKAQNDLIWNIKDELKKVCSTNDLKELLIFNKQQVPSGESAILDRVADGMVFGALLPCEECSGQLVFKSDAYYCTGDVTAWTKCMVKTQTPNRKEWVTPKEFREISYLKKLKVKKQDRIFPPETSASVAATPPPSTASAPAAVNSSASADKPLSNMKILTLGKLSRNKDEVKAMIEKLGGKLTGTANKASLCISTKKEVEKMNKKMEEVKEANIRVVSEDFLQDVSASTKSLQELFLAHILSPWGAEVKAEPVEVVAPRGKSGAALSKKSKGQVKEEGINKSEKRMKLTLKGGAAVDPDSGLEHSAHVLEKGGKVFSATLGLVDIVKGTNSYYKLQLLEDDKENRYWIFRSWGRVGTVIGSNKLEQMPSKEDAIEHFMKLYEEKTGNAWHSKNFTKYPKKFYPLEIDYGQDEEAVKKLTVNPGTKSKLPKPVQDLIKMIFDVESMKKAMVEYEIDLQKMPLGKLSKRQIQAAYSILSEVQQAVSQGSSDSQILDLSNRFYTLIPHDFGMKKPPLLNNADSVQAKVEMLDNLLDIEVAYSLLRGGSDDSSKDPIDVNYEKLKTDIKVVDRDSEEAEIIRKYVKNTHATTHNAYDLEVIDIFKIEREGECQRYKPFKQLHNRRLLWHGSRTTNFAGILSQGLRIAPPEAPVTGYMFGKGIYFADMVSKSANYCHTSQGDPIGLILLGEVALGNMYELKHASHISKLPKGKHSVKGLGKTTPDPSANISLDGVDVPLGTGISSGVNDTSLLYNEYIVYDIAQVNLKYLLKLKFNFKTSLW

SMILES: Cn1cc(NC(=O)c2ccc(N3CCN(Cc4ccc5nc(C(F)F)c(=O)[nH]c5c4F)CC3)c(F)n2)cn1 [US20250346571, Compound 15]
- IC50: < 5 nM
